Columns and labels:
[1] = human, in vivo
Excerpt: A 7 T [Tesla] whole-body MRI instrument (Siemens, Erlangen Germany), with quadrature transmission and 24-channel phased-array receive head RF coils, was used. Dynamic measurements employed a single-slice inversion recovery (IR) turboflash technique (Haase A. Snapshot FLASH MRI. Applications to T1, T2, and chemical-shift imaging. Magn. Reson. Med. 1990; 13: 77-89), sampling magnetization eight post-inversion times [TIs]: the inversion pulse was non-selective. […] Gadoteridol [ProHance; Bracco Diagnostics, Inc.] was injected into an antecubital vein catheter at 2.5 mL/s using a power injector [Medrad] to deliver a dose of 28 μmol/kg (typically ^˜5 mL), followed by a 15 mL saline flush at the same rate. […] Parametric R1 maps were calculated on a voxel basis by fitting the signal magnitude at each TI with a full Bloch simulation incorporating all RF pulses and delays. […]
Dynamic measurements were obtained using a single-slice inversion recovery (IR) turboflash technique that sampled magnetization at eight time points post inversion. […] Parametric R1 maps were calculated on a voxel basis by fitting the magnitude signal intensity at each inversion time to a full Bloch simulation that incorporated all RF pulses and delays and modeled the recovery from inversion as a two-parameter single exponential using a gradient expansion algorithm. […]

[2] = human, in vivo, iv; cited from earlier work
[3] = tested on: Na+/K+-ATPase; conditions: within 15 minutes of direct application to the striatum; cited from earlier work
[4] = tested on: human prostate tumor; conditions: cited from earlier work

Question: For `CC(O)CN1CCN(CC(=O)[O-])CCN(CC(=O)[O-])CCN(CC(=O)[O-])CC1.[Gd+3]` (stereo not shown) [GdHPDO3A, gadoteridol], which “maximum K^trans in the lesion center” value [1] is on record?
Answer: above 2×10^−3 min^−1

Question: Which “plasma t1/2” value [2] does the source give for ferumoxytol [Fe-tol] here?
Answer: 14 h

Question: With `C[C@@H]1O[C@@H](O[C@H]2C[C@@H](O)[C@]3(CO)[C@H]4[C@H](O)C[C@]5(C)[C@@H](C6=CC(=O)OC6)CC[C@]5(O)[C@@H]4CC[C@]3(O)C2)[C@H](O)[C@H](O)[C@H]1O` [ouabain] as the compound, how does the ADC drop [3] read?
Answer: 40%

Question: Which “[1-13C]pyruvate to [1-13C]lactate conversion rate constant” value [4] does the source give for `CC(=O)[13C](=O)O` [[1-^13C]pyruvate] here?
Answer: 0.045 s⁻¹

— patent US10335048B2, “High-resolution metabolic neuroimaging” (Oregon Health & Science University, priority 2013, dated 2019)
